Laboratory results taken from patent US20100183633A1, “INTERLEUKIN 6 AND TUMOR NECROSIS FACTOR ALPHA AS BIOMARKERS OF JNK INHIBITION” (UNIVERSITY OF MASSACHUSETTS, priority 2008, published 2010).

B1: IL6: inflammatory cytokine interleukin 6, given to mice by subcutaneous injection (1 μg/kg) (protein, UniProt P08505 25-211, looked up)
Interleukin-6: FPTSQVRRGDFTEDTTPNRPVYTTSQVGGLITHVLWEIVEMRKELCNGNSDCMNNDDALAENNLKLPEIQRNDGCYQTGYNQEICLLKISSGLLEYHSYLEYMKNNLKDNKKDKARVLQRDTETLIHIFNQEVKDLHKIVLPTPISNALLTDKLESQKEWLRTKTIQFILKSLEEFLKVTLRSTRQT

Tests used:
N^KO and N^WT mice = system: N^KO and N^WT mice
Protocol: (§1) All studies with the selective ablation of the Jnk1 gene in the mouse nervous system were performed using male mice (8-24 wks old). The mice were treated with PTU in the drinking water (cherry-flavored Cool-Aid supplemented without or with 1.2 mM PTU (Sigma)). Body temperature was measured using a Microtherma 2 Type “T” Thermometer (Braintree Scientic Inc). Rip-CreESR mice were treated with 1 mg 4-hydroxytamoxifen (Sigma) by intraperitoneal injection once each day for 5 consecutive days.
N^KO and N^WT mice were treated with PTU in the drinking water and the effect of feeding a chow diet or a HFD was examined.

Jnk1−/− mice = conditions: PTU-treated Jnk1−/− mice
Protocol: as §1

[1] = Blood IL6 concentration after subcutaneous IL6 injection; assay type: in vivo; conditions: IL6 1 μg/kg subcutaneous, HFD-fed F^KO mice, 90 mins post-injection, mean±SD, n=8
Protocol: (§2) FIG. 10E is a representation of an immunoblot to detect expression of SOCS3 and tubulin (control). F^WT and F^KO mice were fed a HFD (16 wks). F^KO mice were treated with IL6 (1 μg/kg) by subcutaneous injection. At 90 mins post-injection, the blood IL6 concentration was 44±9.1 pg/ml (mean±SD; n=8), the liver was isolated, and the expression of SOCS3 and Tubulin was examined by immunoblot analysis as set forth in Example 1.
Cytokine analysis: Cytokines in plasma, serum, and culture medium were measured by multiplexed ELISA using a Luminex 200 machine (Millipore) and serum mouse adipokine, adiponectin and cytokine kits (Millipore). Insulin and insulin C-peptide in plasma were measured by ELISA using a Luminex 200 machine. Blood glucose was measured with an Ascensia Breeze 2 glucose meter (Bayer). Alanine transaminase (ALT) and aspartate aminotransferase (AST) activity in serum was measured using the ALT and AST Reagent kit (Pointe Scientific) with a Tecan Sapphire […] microplate reader (Tecan Trading AG).

SOCS3 = assay: Hepatic SOCS3 expression by immunoblot after IL6 treatment; assay type: in vivo; conditions: acute IL6 1 μg/kg s.c., HFD-fed F^KO mice, liver at 90 mins; compared with HFD-fed F^WT
Protocol: as §2
(§3) Immunoblot analysis: Tissue extracts were prepared using Triton lysis buffer [20 mM Tris (pH 7.4), 1% Triton X-100, 10% glycerol, 137 mM NaCl, 2 mM EDTA, 25 mM β-glycerophosphate, 1 mM sodium orthovanadate, 1 mM phenylmethylsulfonyl fluoride, and 10 μg/mL of aprotinin and leupeptin]. […] Immunocomplexes were detected by enhanced chemiluminescence (NEN). Quantitation of immunoblots was performed using the Odyssey™ infrared imaging system (LI-COR Biosciences). The amount of total and phospho-JNK1/2, cJun, ERK1/2, p38 MAPK, and AKT in tissue extracts was measured by multiplexed ELISA using a Luminex 200 instrument (Millipore) […]

HFD-fed F^KO mice = assay: Insulin tolerance test after IL6 treatment; assay type: in vivo; conditions: IL6 1 μg/kg s.c., then insulin 0.75 mU/g i.p. after 90 mins; HFD-fed F^KO vs HFD-fed F^WT
Protocol: FIG. 10F is a graph of the glucose concentration during an ITT in which mice were treated by subcutaneous injection with IL6 (1 μg/kg) and then treated (after 90 mins) with insulin (0.75 mU/g) by intraperitoneal injection. Statistically significant differences between F^KO and F^WT mice are indicated (*, P<0.05; **, P<0.01).
Glucose tolerance, insulin tolerance, pyruvate challenge, and insulin clearance tests: The mice were fed a standard chow diet or a high fat diet (Iso Pro 3000, Purina and F3282, Bioserve Inc.) for 16 wks. Glucose tolerance tests (GTT), insulin tolerance tests (ITT), and pyruvate challenge tests were performed using methods described by Mora et al., FEBS Lett., 579, 3632 (2005). For GTT, mice fasted overnight were injected intraperitoneally with glucose (1 mg/g) and blood glucose concentration was measured over time. For ITT, mice fed ad libitum were injected intraperitoneally with insulin (0.75 mU/g) and blood glucose concentration was measured over time. In some ITT experiments, blood glucose concentration was measured at 30 minutes and the area under the curve (AUC) was calculated. For pyruvate challenge tests, mice fasted overnight were injected intraperitoneally with pyruvate (1 mg/g) and blood glucose concentration was measured over time. […]

AKT = assay: Insulin-stimulated AKT activation (immunoblot) after IL6 treatment; assay type: in vivo; conditions: IL6 1 μg/kg s.c., insulin 0.3 mU/g i.v. after 90 mins, HFD-fed F^KO mice
Protocol: FIGS. 10G and 10H are representations of immunoblots to detect AKT, phospho-AKT, and tubulin in liver (G) and epididymal fat pads (H). HFD-fed F^KO mice were subcutaneously injected with IL6 (1 μg/kg) and after 90 mins, intravenously injected with insulin (0.3 mU/g). The liver (G) and epididymal fat pads (H) were isolated after 5 mins and examined by immunoblot analysis as set forth in Example 1.
as §3

| Molecule | expression of thyroid hormone responsive genes in intrascapular brown fat (N^KO and N^WT mice; PTU 1.2 mM in drinking water, NKO mice) | body weight when fed a HFD, N^KO vs N^WT (N^KO and N^WT mice; PTU in drinking water 12 wks, diet groups after 2 wks) | blood glucose, insulin, leptin and resistin concentrations and body temperature, N^KO vs N^WT (N^KO and N^WT mice; after 12 wks of PTU, chow-fed and HFD-fed) | metabolic phenotypes of NKO mice (N^KO and N^WT mice; inhibition of thyroid hormone by PTU-treatment) | effect of whole body JNK1-deficiency on HFD-induced weight gain, hyperglycemia, glucose intolerance, insulin sensitivity, glucose-induced insulin release (Jnk1−/− mice) | blood IL6 concentration [1] [pg/mL] | hepatic SOCS3 expression (SOCS3) | insulin resistance in insulin tolerance test (HFD-fed F^KO mice) | effect on AKT activation in the adipose tissue (AKT; epididymal fat pads) | insulin-stimulated AKT activation in the liver (AKT; liver) |
| --- | --- | --- | --- | --- | --- | --- | --- | --- | --- | --- |
| CCCc1cc(=O)[nH]c(=S)[nH]1 [PTU, propylthiouracil] | suppressed the increased expression of thyroid hormone responsive genes | No statistically significant differences | No significant differences | markedly suppressed the metabolic phenotypes | significantly suppressed the effect of whole body JNK1-deficiency |  |  |  |  |  |
| B1 |  |  |  |  |  | 44 ± 9.1 | increased hepatic SOCS3 expression | became equally insulin resistant | only a moderate effect | reduced insulin-stimulated AKT activation |
